Key:
Type in all cases: in vivo
[1] = test system: barnyardgrass (Echinochloa crus-galli); experiment: Test A pre-/postemergence plant response
How it was run: (§1)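 Greenhouse pots of loam/sand received directed preemergence soil sprays or postemergence sprays (plants 2–10 cm, 1–2 leaf stage), compounds formulated in non-phytotoxic solvent with surfactant. Injury was rated visually versus untreated controls after about ten days on a 0 (no effect) to 100 (complete control) scale.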

[2] = test system: corn (Zea mays); experiment: Test A pre-/postemergence plant response
How it was run: as §1

[3] = test system: giant foxtail (Setaria faberii); experiment: Test A pre-/postemergence plant response
How it was run: as §1

[4] = test system: large crabgrass (Digitaria sanguinalis); experiment: Test A pre-/postemergence plant response
How it was run: as §1

[5] = test system: morningglory (Ipomoea spp.); experiment: Test A pre-/postemergence plant response
How it was run: as §1

[6] = test system: pigweed (Amaranthus retroflexus); experiment: Test A pre-/postemergence plant response
How it was run: as §1

[7] = test system: velvetleaf (Abutilon theophrasti); experiment: Test A pre-/postemergence plant response
How it was run: as §1

[8] = test system: wheat (Triticum aestivum); experiment: Test A pre-/postemergence plant response
How it was run: as §1

[9] = test system: winter barley (Hordeum vulgare); experiment: Test B postemergence plant response; conditions: for Barley plant response rating (0 to 100 scale): 62 g ai/ha, postemergence, 0 is no effect, 100 is complete control; for Plant response rating, Barley: Postemergence
How it was run: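 Visual ratings from 0 (no effect) to 100 (complete control), made against controls 13–15 days after treatment, kept in a greenhouse. Compounds were applied postemergence to potted plants at the 1- to 4-leaf stage (2–18 cm).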

[10] = test system: barnyardgrass (Echinochloa crus-galli); experiment: Test B flooded paddy test; conditions: for Plant response rating, Flood, Barnyardgrass: 250 g ai/ha, flooded paddy test, visual rating on 0 to 100 scale (0 no effect, 100 complete control) after 13 to 15 days; for Plant response rating, Barnyardgrass: Flood (flooded paddy test), 62 g ai/ha, scale of 0 to 100 where 0 is no effect and 100 is complete control, 13 to 15 days
How it was run: (§2)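 Seedlings reaching 2 leaves are flooded 3 cm deep; test material is delivered to that water, which stays at the same depth. Plants remain in a greenhouse 13–15 days and are then scored by eye versus controls from 0 to 100.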

[11] = test system: ducksalad (Heteranthera limosa); experiment: Test B flooded paddy test; conditions: for Plant response rating, Flood, Ducksalad: 250 g ai/ha, flooded paddy test, visual rating on 0 to 100 scale (0 no effect, 100 complete control) after 13 to 15 days; for Plant response rating, Ducksalad: Flood (flooded paddy test), 62 g ai/ha, scale of 0 to 100 where 0 is no effect and 100 is complete control, 13 to 15 days
How it was run: as §2

[12] = test system: rice (Oryza sativa); experiment: Test B flooded paddy test; conditions: for Plant response rating, Flood, Rice: 250 g ai/ha, flooded paddy test, visual rating on 0 to 100 scale (0 no effect, 100 complete control) after 13 to 15 days; for Plant response rating, Rice: Flood (flooded paddy test), 62 g ai/ha, scale of 0 to 100 where 0 is no effect and 100 is complete control, 13 to 15 days
How it was run: as §2

[13] = test system: umbrella sedge (Cyperus difformis); experiment: Test B flooded paddy test; conditions: for Plant response rating, Flood, Sedge, Umbrella: 250 g ai/ha, flooded paddy test, visual rating on 0 to 100 scale (0 no effect, 100 complete control) after 13 to 15 days; for Plant response rating, Sedge, Umbrella: Flood (flooded paddy test), 62 g ai/ha, scale of 0 to 100 where 0 is no effect and 100 is complete control, 13 to 15 days
How it was run: as §2

[14] = Postemergence, 125 g ai/ha, 0 to 100 scale where 0 is no effect and 100 is complete control
[15] = Postemergence, 500 g ai/ha, 0 to 100 scale, 0 = no effect, 100 = complete control, approx. ten days
[16] = Preemergence, 125 g ai/ha, 0 to 100 scale, 0 = no effect, 100 = complete control
[17] = Preemergence, 500 g ai/ha, visual injury, 0 to 100 scale (0 no effect, 100 complete control), approx. ten days
[18] = 31 g ai/ha, 0 to 100 scale (0 no effect, 100 complete control)
[19] = 125 g ai/ha, scale 0 to 100 (0 no effect, 100 complete control)
[20] = 250 g ai/ha, scale 0 to 100 (0 no effect, 100 complete control), 13 to 15 days

SMILES: COCCCn1c(-c2cccc(Br)c2)ncc(C(=O)C2=C(O)CCCC2=O)c1=O [Compound 140]
- Plant response rating, Barnyardgrass [1, 14]: 90
- Plant response rating, Barnyardgrass [1, 15]: 90
- Plant response rating, Barnyardgrass [1, 16]: 60
- Plant response rating, Barnyardgrass [1, 17]: 100
- Plant response rating, Corn [2, 14]: 0
- Plant response rating, Corn [2, 15]: 20
- Plant response rating, Corn [2, 16]: 0
- Plant response rating, Corn [2, 17]: 0
- Plant response rating, Foxtail, Giant [3, 14]: 80
- Plant response rating, Foxtail, Giant [3, 15]: 90
- Plant response rating, Foxtail, Giant [3, 16]: 40
- Plant response rating, Foxtail, Giant [3, 17]: 90
- Plant response rating, Crabgrass, Large [4, 14]: 90
- Plant response rating, Crabgrass, Large [4, 15]: 90
- Plant response rating, Crabgrass, Large [4, 16]: 70
- Plant response rating, Crabgrass, Large [4, 17]: 90
- Plant response rating, Morningglory [5, 14]: 100
- Plant response rating, Morningglory [5, 15]: 100
- Plant response rating, Morningglory [5, 16]: 30
- Plant response rating, Morningglory [5, 17]: 50
- Plant response rating, Pigweed [6, 14]: 90
- Plant response rating, Pigweed [6, 15]: 100
- Plant response rating, Pigweed [6, 16]: 80
- Plant response rating, Pigweed [6, 17]: 100
- Plant response rating, Velvetleaf [7, 14]: 100
- Plant response rating, Velvetleaf [7, 15]: 100
- Plant response rating, Velvetleaf [7, 16]: 80
- Plant response rating, Velvetleaf [7, 17]: 100
- Plant response rating, Wheat [8, 14]: 0
- Plant response rating, Wheat [8, 15]: 0
- Plant response rating, Wheat [8, 16]: 0
- Plant response rating, Wheat [8, 17]: 0
- Barley plant response rating (0 to 100 scale) ([9]; 13 to 15 days): 0
- Plant response rating, Barley [9, 18]: 0
- Plant response rating, Barley [9, 19]: 0
- Plant response rating, Barley [9, 20]: 0
- Plant response rating, Flood, Barnyardgrass [10]: 45
- Plant response rating, Barnyardgrass [10]: 20
- Plant response rating, Flood, Ducksalad [11]: 85
- Plant response rating, Ducksalad [11]: 50
- Plant response rating, Flood, Rice [12]: 40
- Plant response rating, Rice [12]: 0
- Plant response rating, Flood, Sedge, Umbrella [13]: 85
- Plant response rating, Sedge, Umbrella [13]: 75

SMILES: CCCn1c(-c2cccc(Br)c2)ncc(C(=O)C2=C(O)CCCC2=O)c1=O [Compound 141]
- Plant response rating, Barnyardgrass [1, 14]: 90
- Plant response rating, Barnyardgrass [1, 15]: 90
- Plant response rating, Barnyardgrass [1, 16]: 60
- Plant response rating, Barnyardgrass [1, 17]: 100
- Plant response rating, Corn [2, 14]: 20
- Plant response rating, Corn [2, 15]: 30
- Plant response rating, Corn [2, 16]: 0
- Plant response rating, Corn [2, 17]: 0
- Plant response rating, Foxtail, Giant [3, 14]: 80
- Plant response rating, Foxtail, Giant [3, 15]: 90
- Plant response rating, Foxtail, Giant [3, 16]: 40
- Plant response rating, Foxtail, Giant [3, 17]: 80
- Plant response rating, Crabgrass, Large [4, 14]: 80
- Plant response rating, Crabgrass, Large [4, 15]: 90
- Plant response rating, Crabgrass, Large [4, 16]: 80
- Plant response rating, Crabgrass, Large [4, 17]: 100
- Plant response rating, Morningglory [5, 14]: 70
- Plant response rating, Morningglory [5, 15]: 100
- Plant response rating, Morningglory [5, 16]: 0
- Plant response rating, Morningglory [5, 17]: 30
- Plant response rating, Pigweed [6, 14]: 90
- Plant response rating, Pigweed [6, 15]: 100
- Plant response rating, Pigweed [6, 16]: 70
- Plant response rating, Pigweed [6, 17]: 100
- Plant response rating, Velvetleaf [7, 14]: 100
- Plant response rating, Velvetleaf [7, 15]: 100
- Plant response rating, Velvetleaf [7, 16]: 70
- Plant response rating, Velvetleaf [7, 17]: 100
- Plant response rating, Wheat [8, 14]: 0
- Plant response rating, Wheat [8, 15]: 0
- Plant response rating, Wheat [8, 16]: 0
- Plant response rating, Wheat [8, 17]: 0
- Barley plant response rating (0 to 100 scale) ([9]; 13 to 15 days): 0
- Plant response rating, Barley [9, 18]: 0
- Plant response rating, Barley [9, 19]: 5
- Plant response rating, Barley [9, 20]: 5
- Plant response rating, Flood, Barnyardgrass [10]: 50
- Plant response rating, Barnyardgrass [10]: 20
- Plant response rating, Flood, Ducksalad [11]: 85
- Plant response rating, Ducksalad [11]: 75
- Plant response rating, Flood, Rice [12]: 35
- Plant response rating, Rice [12]: 0
- Plant response rating, Flood, Sedge, Umbrella [13]: 85
- Plant response rating, Sedge, Umbrella [13]: 80
